Source: patent US12371454B2, “Cyclic peptide compound having Kras inhibitory action” (priority 2019, dated 2025)
Starred links: 1 amine or outer side, 2 acyl side, 3 side chain; linkers in the order of their positions; H or OH if unused. Positions of bridges follow the written chain, without caps; N, C: chain ends. Non-standard residues stand in square brackets, D forms with d. Residues, ends and D or L forms follow the SMILES beside them. *: point of attachment. hPhe(3-Cl-4-CF3) = N[C@@H](CCc1ccc(C(F)(F)F)c(Cl)c1)C(=O)O; Thiomorpholino(1,1-dioxo) = O=S1(=O)CCN(*)CC1; NMePhe(4-Cl) = CN[C@@H](Cc1ccc(Cl)cc1)C(=O)O; X51 = O=C([C@H](Cc1cc(F)cc(I)c1)N[*:1])[*:2]; NMePhe(4-Me) = CN[C@@H](Cc1ccc(C)cc1)C(=O)O; NMePhe(4-F) = CN[C@@H](Cc1ccc(F)cc1)C(=O)O; X83 = O=C([C@H](Cc1cncc(Br)c1)N[*:1])[*:2]; X20 = O=C([C@H](Cc1ccc(Br)s1)N[*:1])[*:2]; Phe(3-I) = N[C@@H](Cc1cccc(I)c1)C(=O)O; Pro(4,4-F2) = O=C(O)[C@@H]1CC(F)(F)CN1; NMeY = CN[C@@H](Cc1ccc(O)cc1)C(=O)O; NMeCha = CN[C@@H](CC1CCCCC1)C(=O)O; NMeChg = CN[C@H](C(=O)O)C1CCCCC1; NMeD = CN[C@@H](CC(=O)O)C(=O)O; NMeL = CN[C@@H](CC(C)C)C(=O)O; NMeNva = CCC[C@H](NC)C(=O)O; NMeV = CN[C@H](C(=O)O)C(C)C; d(β3hA) = C[C@@H](N)CC(=O)O; NMeAbu = CC[C@H](NC)C(=O)O; NMeA = CN[C@@H](C)C(=O)O; NMeAib = CNC(C)(C)C(=O)O; Nle = CCCC[C@H](N)C(=O)O; Piperidide = C1CCN(*)CC1; Pra = C#CC[C@H](N)C(=O)O; Pyrrolidide = C1CCN(*)C1; Ac5c = NC1(C(=O)O)CCCC1; Aze = O=C(O)[C@@H]1CCN1; CF3 = FC(F)(F)*; Sar = CNCC(=O)O

molecular target: T1, Kras and SOS1 (biotin-tagged human Kras loaded with GDP, His-tagged human SOS1) (Homo sapiens, UniProt P01116, G12D); assay: Protein-protein interaction inhibition between Kras and SOS1 (KrasGl2D-SOS PPI) using AlphaScreen; assay type: binding; conditions: AlphaScreen; biotin-tagged human Kras loaded with GDP, His-tagged human SOS1; read-out: KRAS G12D-SOS PPI IC50
T1 construct: made in house; host or cells: E. coli (stated for Kras only)
In short: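 Read-out is acceptor-bead light at 520-620 nm, arising when 680 nm-irradiated nickel donor beads pass singlet oxygen to streptavidin acceptors. The bead pair links His-tagged SOS1 with biotin-tagged, GDP-bound Kras from E. coli.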

T1 sequence (P01116 1-188 isoform P01116-2 G12D): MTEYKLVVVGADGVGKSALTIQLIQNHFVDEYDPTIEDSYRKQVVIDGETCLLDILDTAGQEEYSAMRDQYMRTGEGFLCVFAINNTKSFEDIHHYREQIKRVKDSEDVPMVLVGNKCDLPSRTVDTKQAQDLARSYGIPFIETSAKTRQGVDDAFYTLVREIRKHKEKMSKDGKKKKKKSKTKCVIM

Point of comparison: CCCC[C@@H]1NC(=O)[C@H](Cc2cc(F)cc(I)c2)NC(=O)CN(C)C(=O)[C@H](Cc2ccc(OC)cc2)N(C)C(=O)[C@@H]2CCN2C(=O)[C@H](C)N(C)C(=O)[C@H]([C@@H](C)CC)NC(=O)[C@H](CC)N(C)C(=O)C[C@@H](C(=O)N2CCCCC2)N(C)C(=O)[C@H](CC(C)C)NC(=O)C(C)(C)N(C)C1=O [Compound 1226] ([NMeAbu]I[NMeA][Aze][NMeY](Me)[Sar][X51][Nle][NMeAib]L[NMeD]-Piperidide; lactam N-11), IC50 15 nM. Against it:
- CCCC[C@@H]1NC(=O)[C@H](Cc2ccc(Br)s2)NC(=O)CN(C)C(=O)[C@H](Cc2ccc(Cl)cc2)N(C)C(=O)CN(C)C(=O)CN(C)C(=O)[C@H]([C@@H](C)CC)NC(=O)[C@H](CC(C)C)N(C)C(=O)C[C@@H](C(=O)N2CCCCC2)N(C)C(=O)[C@H](CC(C)C)NC(=O)C(C)(C)N(C)C1=O [Compound 1216] ([NMeL]I[Sar][Sar][NMePhe(4-Cl)][Sar][X20][Nle][NMeAib]L[NMeD]-Piperidide; lactam N-11) — 8-fold higher, 120 nM
- C#CC[C@@H]1NC(=O)[C@H](Cc2cccc(I)c2)NC(=O)CN(C)C(=O)[C@H](Cc2ccc(OC(F)(F)F)cc2)N(C)C(=O)CN(C)C(=O)CN(C)C(=O)[C@H]([C@@H](C)CC)NC(=O)[C@H](CC(C)C)N(C)C(=O)C[C@@H](C(=O)N2CCCCC2)N(C)C(=O)[C@H](CC(C)C)NC(=O)C(C)(C)N(C)C1=O [Compound 1219] ([NMeL]I[Sar][Sar][NMeY](CF3)[Sar][Phe(3-I)][Pra][NMeAib]L[NMeD]-Piperidide; lactam N-11) — within 1.5-fold, 16 nM
- C#CC[C@@H]1NC(=O)[C@H](Cc2cccc(I)c2)NC(=O)CN(C)C(=O)[C@H](Cc2ccc(F)cc2)N(C)C(=O)[C@@H]2CCN2C(=O)[C@H](C)N(C)C(=O)[C@H]([C@@H](C)CC)NC(=O)[C@H](CC(C)C)N(C)C(=O)C[C@@H](C(=O)N2CCCCC2)N(C)C(=O)[C@H](CC(C)C)NC(=O)C(C)(C)N(C)C1=O [Compound 1230] ([NMeL]I[NMeA][Aze][NMePhe(4-F)][Sar][Phe(3-I)][Pra][NMeAib]L[NMeD]-Piperidide; lactam N-11) — 6.5-fold higher, 98 nM
- CCC[C@H]1C(=O)N[C@@H]([C@@H](C)CC)C(=O)N(C)CC(=O)N(C)CC(=O)N(C)[C@@H](CC2CCCCC2)C(=O)N(C)CC(=O)N[C@@H](CCc2ccc(C(F)(F)F)c(Cl)c2)C(=O)N2CC(F)(F)C[C@H]2C(=O)NC2(CCCC2)C(=O)N(C)[C@@H](C2CCCCC2)C(=O)N(C)[C@H](C(=O)N2CCCC2)CC(=O)N1C [Compound 1232] ([NMeNva]I[Sar][Sar][NMeCha][Sar][hPhe(3-Cl-4-CF3)][Pro(4,4-F2)][Ac5c][NMeChg][NMeD]-Pyrrolidide; lactam N-11) — 32-fold lower, 0.47 nM
- CC[C@H](C)[C@@H]1NC(=O)[C@H](CC(C)C)N(C)C(=O)C[C@@H](C(=O)N2CCS(=O)(=O)CC2)N(C)C(=O)[C@H](C(C)C)N(C)C(=O)C2(CCCC2)NC(=O)[C@@H]2CCCN2C(=O)[C@H](CCc2ccc(C(F)(F)F)c(Cl)c2)NC(=O)CN(C)C(=O)[C@H](CC2CCCCC2)N(C)C(=O)[C@@H]2CCN2C(=O)[C@H](C)N(C)C1=O [Compound 1238] ([NMeL]I[NMeA][Aze][NMeCha][Sar][hPhe(3-Cl-4-CF3)]P[Ac5c][NMeV][NMeD]-{Thiomorpholino(1,1-dioxo)}; lactam N-11) — 1.5-fold lower, 9.9 nM
- CC[C@H](C)[C@@H]1NC(=O)[C@H](CC(C)C)N(C)C(=O)C[C@@H](C)NC(=O)[C@H](C)N(C)C(=O)C2(CCCC2)NC(=O)[C@@H]2CCCN2C(=O)[C@H](CCc2ccc(C(F)(F)F)c(Cl)c2)NC(=O)CN(C)C(=O)[C@H](Cc2ccc(C)cc2)N(C)C(=O)[C@@H]2CCN2C(=O)[C@H](C)N(C)C1=O [Compound 1239] (cyclo([Ac5c][NMeA][d(β3hA)][NMeL]I[NMeA][Aze][NMePhe(4-Me)][Sar][hPhe(3-Cl-4-CF3)]P)) — 12-fold higher, 180 nM
- CCCC[C@@H]1NC(=O)[C@H](Cc2cncc(Br)c2)NC(=O)CN(C)C(=O)[C@H](Cc2ccc(OC)cc2)N(C)C(=O)[C@@H]2CCN2C(=O)[C@H](C)N(C)C(=O)[C@H]([C@@H](C)CC)NC(=O)[C@H](CC)N(C)C(=O)C[C@@H](C(=O)N2CCCCC2)N(C)C(=O)[C@H](CC(C)C)NC(=O)C(C)(C)N(C)C1=O [Compound 1240] ([NMeAbu]I[NMeA][Aze][NMeY](Me)[Sar][X83][Nle][NMeAib]L[NMeD]-Piperidide; lactam N-11) — 19-fold higher, 290 nM
- CC[C@H](C)[C@@H]1NC(=O)[C@H](CC(C)C)N(C)C(=O)C[C@@H](C(=O)N2CCCCC2)N(C)C(=O)[C@H](C(C)C)N(C)C(=O)C2(CCCC2)NC(=O)[C@H](C)N(C)C(=O)[C@H](CCc2ccc(C(F)(F)F)c(Cl)c2)NC(=O)CN(C)C(=O)[C@H](CC2CCCCC2)N(C)C(=O)[C@@H]2CCN2C(=O)[C@H](C)N(C)C1=O [Compound 1243] ([NMeL]I[NMeA][Aze][NMeCha][Sar][hPhe(3-Cl-4-CF3)][NMeA][Ac5c][NMeV][NMeD]-Piperidide; lactam N-11) — 1.8-fold higher, 27 nM
